Earlier results as cited in patent US20170056383A1, “TOPICAL HERPES PAIN TREATMENT AND COMPOSITION” (priority 2015, published 2017).

System: Herpes Simplex Virus lesions
Conditions: applied to the lesion

Q: For `CCOC(=O)c1ccc(N)cc1` [benzocaine], which active working time is on record?
A: about 15 minutes
